Measured values from paper PMC8960621, “Solution speciation and human serum protein binding of indium(III) complexes of 8-hydroxyquinoline, deferiprone and maltol” (Journal of Biological Inorganic Chemistry, 2022).
Values joined by “and” are separate entries in the source; they are usually repeats but may differ in a detail not shown here. Equal entries are not always repeated.

Experiments:
[1] = biological target: T1, human serum albumin (HSA) (Homo sapiens, UniProt P02768); experiment: HSA binding by membrane ultrafiltration-UV-vis; settings: 2.5 equiv. protein
T1 construct: purchased Sigma-Aldrich A8763

apoTf = biological target: T2, apoTf (Homo sapiens, UniProt P02787); experiment: Interaction with (apo)Tf: ligand displacement and binding of the intact complex (UV-vis, fluorescence, ultrafiltration); settings: pH 7.40
T2 construct: purchased Sigma-Aldrich T2036
Procedure: Therefore, UV–vis and fluorescence emission spectra of InQ3 were recorded in the presence of increasing amounts of apoTf (Fig. 5a, b). After a short initial phase, the absorbance band of InQ3 is reduced gradually by the addition of the protein, while the development of the new band at lower wavelengths (at ca. 310 nm) refers to the liberation of HQ. Namely, there is a competition for In(III) ion between the ligand and the iron-binding sites of apoTf. Absorbance values depicted at 370 nm and 310 nm (Fig. 5c) saturate roughly to the corresponding values of the free ligand and outline a sigmoidal shape. Fluorescence intensity of the same sample set (Fig. 5b, d) was enhanced and moderately blue shifted (from λmax = 540 nm to 532 nm) until the addition of ca. 0.2 equiv. apoTf. […] Then, by the addition of more apoTf, intensities decreased and λmax shifted further to shorter wavelengths (527 nm). […] Based on this and the results of apoTf quenching (vide supra) protein binding of the non-dissociated complex is presumed. This is further supported by fluorescence lifetime measurements; where new lifetime components τ3 = 4.7 ± 0.2 ns and τ4 = 13.8 ± 0.4 ns appeared for InQ3 in the presence of 0.1 – 0.3 equiv. apoTf (after 1 min waiting time). […] Here, the sigmoid shape of the UV–vis absorbance was seen again (Fig. S5) and the shifted inflection point in comparison to the titration with apoTf underlines the lower In(III) binding capacity of Tf. […]
In the case of InD3, the absorbance bands of the metal complex and apoTf overlap in great extent, however, spectra can be deconvoluted to the spectra of InD3, deferiprone and apoTf (see Fig S6 for details), and molar fractions of the respective species can be calculated (Fig. 6). Ultrafiltration experiments were carried out as well for the InD3 – apoTf system and the non-protein bound LMM fractions were analyzed by UV–vis spectrophotometry (Fig. 6). […] The complex dissociated in line with the addition of apoTf and a practically quantitative displacement of deferiprone seems to take place by the addition of ca. 0.5 equiv. apoTf. […]

HSA = biological target: T3, HSA (Homo sapiens, UniProt P02768); experiment: Fluorescence lifetime (TCSPC) of the complexes in the presence of HSA; type: binding; settings: additional lifetime component in the presence of HSA (2–10 μM), 10 μM complex, pH 7.40
T3 construct: purchased Sigma-Aldrich A8763
Procedure: The fluorescence lifetime of InQ3 was determined in the absence and presence of HSA. […] GaQ3 behaves similarly (Table 2), while lifetimes of InD3 were too short (τ ≤ 0.2 ns) for accurate determination with our instrument. By the addition of HSA to the complex, two additional lifetime components appeared for InQ3: τ3 = 5.7 ± 0.3 ns and τ4 = 13.8 ± 0.6 ns, which correspond to the HSA bound forms. […] The GaQ3 ‒ HSA system could be characterized with similar lifetime parameters (Table 2).
Fluorescence lifetime was measured on the same fluorometer equipped with a DeltaHub time-correlated single photon counting (TCSPC) controller applying NanoLED light sources N-300 (λmax = 300 nm) and N-350 (λmax = 355 nm) (Horiba Jobin Yvon). The background (obtained with blank samples) was subtracted from the decay of the samples. The program DAS6 (version 6.6.; Horiba, Jobin Yvon) was used for the analysis of the experimental fluorescence decays. The fluorescence intensity decay over time is described by a sum of exponentials,1 It=∑i=1nαiexp-t/τi where αi and τi are the normalized amplitude and lifetime of component i respectively. The quality of the fit was judged from a χ^2R value close to 1.0 and a random distribution of weighted residuals.

[2] = set-up: method as in PMID 23089600; settings: 10 μM, pH 7.4; cited from earlier work

T3 sequence (P02768 25-609): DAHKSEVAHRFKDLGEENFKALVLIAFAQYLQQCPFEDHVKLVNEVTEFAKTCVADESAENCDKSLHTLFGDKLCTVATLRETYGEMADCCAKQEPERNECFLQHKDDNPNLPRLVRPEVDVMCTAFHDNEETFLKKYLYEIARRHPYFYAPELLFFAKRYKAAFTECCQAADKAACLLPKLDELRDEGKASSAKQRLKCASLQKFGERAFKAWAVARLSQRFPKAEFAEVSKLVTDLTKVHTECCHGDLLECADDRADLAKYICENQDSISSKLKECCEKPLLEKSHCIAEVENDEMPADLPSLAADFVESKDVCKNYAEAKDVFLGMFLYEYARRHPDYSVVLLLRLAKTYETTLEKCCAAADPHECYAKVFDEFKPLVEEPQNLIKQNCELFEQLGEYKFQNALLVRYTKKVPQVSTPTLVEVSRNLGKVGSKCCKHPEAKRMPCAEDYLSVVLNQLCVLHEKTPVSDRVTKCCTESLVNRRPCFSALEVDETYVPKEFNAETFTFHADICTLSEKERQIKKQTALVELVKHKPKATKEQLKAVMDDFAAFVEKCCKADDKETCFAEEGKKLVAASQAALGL
T1 sequence (P02768 25-609): as above
T2 sequence (P02787 20-698): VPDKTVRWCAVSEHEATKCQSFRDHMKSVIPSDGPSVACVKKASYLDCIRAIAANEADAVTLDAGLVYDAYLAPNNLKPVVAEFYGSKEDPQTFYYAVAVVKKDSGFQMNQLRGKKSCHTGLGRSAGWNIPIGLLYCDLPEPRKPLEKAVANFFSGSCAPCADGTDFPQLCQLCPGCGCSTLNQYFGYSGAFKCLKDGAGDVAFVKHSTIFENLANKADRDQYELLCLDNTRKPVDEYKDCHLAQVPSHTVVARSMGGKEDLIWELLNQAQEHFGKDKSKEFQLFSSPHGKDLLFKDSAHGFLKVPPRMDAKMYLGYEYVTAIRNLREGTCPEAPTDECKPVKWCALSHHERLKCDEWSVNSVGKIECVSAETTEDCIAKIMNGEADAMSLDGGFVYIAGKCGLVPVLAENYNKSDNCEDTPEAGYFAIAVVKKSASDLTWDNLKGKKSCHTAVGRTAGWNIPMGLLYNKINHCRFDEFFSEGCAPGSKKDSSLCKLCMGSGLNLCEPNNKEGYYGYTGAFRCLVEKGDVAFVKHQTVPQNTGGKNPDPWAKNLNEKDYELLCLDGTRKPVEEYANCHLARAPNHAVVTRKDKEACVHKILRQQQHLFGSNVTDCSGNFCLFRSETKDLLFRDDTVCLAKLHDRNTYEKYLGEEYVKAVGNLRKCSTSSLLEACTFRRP

Row | SMILES | In(III) ion bound to the protein (deferiprone liberation) [1] | complex bound to HSA [1] | apoTf needed for practically quantitative displacement of the ligand (apoTf; UV–vis deconvolution and ultrafiltration) | τ3 (HSA) | τ4 (HSA) | binding via intermolecular interactions to apoTf (and Tf) (apoTf; UV–vis and fluorescence) | fraction of tris-ligand complex [2]
1 | Cc1c([O-])c(=O)ccn1C.Cc1c([O-])c(=O)ccn1C.Cc1c([O-])c(=O)ccn1C.[In+3] [InD3] | ca. 7% | ca. 8% | ca. 0.5 equiv. |  |  |  | 
2 | [In+3].[O-]c1cccc2cccnc12.[O-]c1cccc2cccnc12.[O-]c1cccc2cccnc12 [InQ3, Tris(8-Quinolinolato)indium(III)] |  |  |  | 5.7 ns and 5.7 ± 0.3 ns | 13.8 ns and 13.8 ± 0.6 ns |  | 
3 | [Ga+3].[O-]c1cccc2cccnc12.[O-]c1cccc2cccnc12.[O-]c1cccc2cccnc12 [GaQ3, Tris(8-Quinolinolato)gallium(III), reference compound] |  |  |  | 5.0 ± 0.3 ns | 14.0 ± 0.2 ns | no such binding was observed | 86%
